# Experimental data as given in patent US20060035901A1, “Methotrexate derivatives useful for treating cancer and arthritis” (Serenex, Inc., priority 2004, published 2006).
# Legend:
# EGFR = EGFR (Homo sapiens, UniProt P00533); test: Elution of EGFR from ATP-Sepharose column by compound (Proteome Mining), IC50 estimate; assay type: binding; details: estimated from percent of protein eluted from ATP-Sepharose column, gel densitometry; read-out: Approximate IC50 for EGFR
# Protocol: (§1) A proteome containing a known quantity of Her2, EGFR, and B-Raf was run over an ATP-Sepharose™ column in order to bind all purine-binding proteins. See, WO 00/63694 and U.S. Provisional Application No. 60/453,697 filed Jan. 22, 2003, each of which is incorporated by reference in its entirety. The ATP-Sepharose™ was washed several times, and then eluted with the compound of Formula III. The experiment was run in duplicate at concentrations of 20 μM, 100 μM, and 500 μM of the compound of Formula III. The eluted fractions were run on a 1-dimensional SDS polyacrylamide gel. Gels were stained with a fluorescent stain such as sypro ruby (a highly sensitive fluorescent protein stain that can readily detect less than 1 fmol of total protein, i.e., less than 0.04 ng for a 40 kDa protein). The gels were imaged using a standard flat bed gel imager and the amount of protein estimated by densiometry. The percent of protein eluted from the column at each concentration was determined and IC50 values were calculated from these estimates. Where necessary, the eluted proteins were cut out of the gel, and identified using mass spectral techniques.
# (§2) These steps were repeated with each of the compounds of Formulas IV-X, MTX, and the c series derivative.
# B-Raf = B-Raf (Homo sapiens, UniProt P15056); test: Elution of B-Raf from ATP-Sepharose column by compound (Proteome Mining), IC50 estimate; assay type: binding; details: estimated from percent of protein eluted from ATP-Sepharose column, gel densitometry; read-out: Approximate IC50 for B-Raf
# Protocol: as §1, §2
# [1] = target: T1, pyruvate carboxylase (PYC) (Sus scrofa, UniProt A0A8W4F6F0); test: Elution of PYC from ATP-Sepharose column loaded with porcine liver proteome, IC50 estimate; assay type: binding; details: estimated from percent of protein eluted from ATP-Sepharose column, read-out: Approximate IC50 for PYC
# T1 construct: a porcine liver proteome was run over an ATP-Sepharose™ column; from tissue; host or cells: porcine liver
# T1 sequence (A0A8W4F6F0 1-1157): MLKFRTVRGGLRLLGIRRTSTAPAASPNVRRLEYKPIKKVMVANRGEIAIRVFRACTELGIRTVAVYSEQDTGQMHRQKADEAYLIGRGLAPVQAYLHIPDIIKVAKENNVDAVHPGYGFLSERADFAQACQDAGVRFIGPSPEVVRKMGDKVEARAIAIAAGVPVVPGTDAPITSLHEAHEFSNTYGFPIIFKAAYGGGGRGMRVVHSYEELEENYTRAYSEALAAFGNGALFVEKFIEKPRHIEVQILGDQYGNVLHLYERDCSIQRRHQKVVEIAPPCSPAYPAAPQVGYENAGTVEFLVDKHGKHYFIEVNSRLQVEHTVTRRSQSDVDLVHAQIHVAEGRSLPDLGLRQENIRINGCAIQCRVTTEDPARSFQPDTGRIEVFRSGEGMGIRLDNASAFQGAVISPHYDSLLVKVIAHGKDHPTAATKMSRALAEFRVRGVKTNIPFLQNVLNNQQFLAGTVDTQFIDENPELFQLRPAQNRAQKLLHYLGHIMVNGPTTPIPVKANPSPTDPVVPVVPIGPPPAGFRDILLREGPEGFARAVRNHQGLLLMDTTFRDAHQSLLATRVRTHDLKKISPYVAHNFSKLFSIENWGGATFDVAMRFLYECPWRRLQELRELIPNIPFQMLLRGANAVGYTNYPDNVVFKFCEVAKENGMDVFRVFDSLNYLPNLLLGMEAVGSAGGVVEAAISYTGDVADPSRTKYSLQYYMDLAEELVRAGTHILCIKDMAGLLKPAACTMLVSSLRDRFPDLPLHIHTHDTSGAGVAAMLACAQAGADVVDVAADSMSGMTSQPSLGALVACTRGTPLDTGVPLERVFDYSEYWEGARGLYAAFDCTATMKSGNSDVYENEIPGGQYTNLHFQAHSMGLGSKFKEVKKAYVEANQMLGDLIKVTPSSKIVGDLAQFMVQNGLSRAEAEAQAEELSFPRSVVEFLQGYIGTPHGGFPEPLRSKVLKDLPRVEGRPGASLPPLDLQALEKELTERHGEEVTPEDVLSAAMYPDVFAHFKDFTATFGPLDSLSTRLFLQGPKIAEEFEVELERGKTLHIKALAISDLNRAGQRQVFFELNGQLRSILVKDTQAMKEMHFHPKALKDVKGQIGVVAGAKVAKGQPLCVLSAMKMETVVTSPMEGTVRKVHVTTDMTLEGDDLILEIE
# Protocol: Similar experiments were carried out to compare the IC50 values for PYC, PCCA, and PCCB. In these trials, a porcine liver proteome was run over an ATP-Sepharose™ column to bind all purine-binding proteins. The ATP-Sepharose™ column was washed several times, and then eluted with the compound of Formula III at concentrations of 1 μM, 5 μM, 10 μM, 50 μM, 100 μM, and 500 μM to identify proteins that bound to this compound. (The amount of protein eluted at the higher concentration ranges plateaued, thus confirming that the entire fraction of bound protein had been eluted.) The eluted fractions were run on a 1-dimensional SDS polyacrylamide gel.
# (§3) Gels were stained with a fluorescent stain such as sypro ruby (a highly sensitive fluorescent protein stain that can readily detect less than 1 fmol of total protein, i.e., less than 0.04 ng for a 40 kDa protein). The gels were imaged using a standard flat bed gel imager and the amount of protein estimated by densiometry. The percent of protein eluted from the column at each concentration was determined and IC50 values were calculated from these estimates. Where necessary, the eluted proteins were cut out of the gel, and identified using mass spectral techniques.
# These steps were repeated with each of the compounds of Formulas IV-X, MTX, and the c series derivative. The values obtained were then compared to those for DHFR.
# [2] = target: T2, propionyl-CoA carboxylase subunit beta (PCCB) (Sus scrofa, UniProt P79384); test: Elution of PCCB from ATP-Sepharose column loaded with porcine liver proteome, IC50 estimate; assay type: binding; details: estimated from percent of protein eluted from ATP-Sepharose column, read-out: Approximate IC50 for PCCB
# T2 construct: a porcine liver proteome was run over an ATP-Sepharose™ column; from tissue; host or cells: porcine liver
# T2 sequence (P79384 29-539): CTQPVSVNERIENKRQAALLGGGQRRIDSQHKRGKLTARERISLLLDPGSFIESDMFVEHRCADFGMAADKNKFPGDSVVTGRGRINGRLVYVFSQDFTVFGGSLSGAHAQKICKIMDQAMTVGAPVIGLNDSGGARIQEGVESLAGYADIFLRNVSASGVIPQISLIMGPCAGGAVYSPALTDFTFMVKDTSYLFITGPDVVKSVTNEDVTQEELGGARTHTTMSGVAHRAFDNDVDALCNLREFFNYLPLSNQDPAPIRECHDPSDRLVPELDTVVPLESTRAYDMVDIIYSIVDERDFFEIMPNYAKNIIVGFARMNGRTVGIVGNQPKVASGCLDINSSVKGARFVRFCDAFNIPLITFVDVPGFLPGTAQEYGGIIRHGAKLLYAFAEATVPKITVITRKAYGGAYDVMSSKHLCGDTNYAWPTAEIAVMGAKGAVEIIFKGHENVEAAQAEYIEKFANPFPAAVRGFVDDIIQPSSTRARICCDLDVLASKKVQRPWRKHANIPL
# T2 sequence (P0DTA4 53-730 partner): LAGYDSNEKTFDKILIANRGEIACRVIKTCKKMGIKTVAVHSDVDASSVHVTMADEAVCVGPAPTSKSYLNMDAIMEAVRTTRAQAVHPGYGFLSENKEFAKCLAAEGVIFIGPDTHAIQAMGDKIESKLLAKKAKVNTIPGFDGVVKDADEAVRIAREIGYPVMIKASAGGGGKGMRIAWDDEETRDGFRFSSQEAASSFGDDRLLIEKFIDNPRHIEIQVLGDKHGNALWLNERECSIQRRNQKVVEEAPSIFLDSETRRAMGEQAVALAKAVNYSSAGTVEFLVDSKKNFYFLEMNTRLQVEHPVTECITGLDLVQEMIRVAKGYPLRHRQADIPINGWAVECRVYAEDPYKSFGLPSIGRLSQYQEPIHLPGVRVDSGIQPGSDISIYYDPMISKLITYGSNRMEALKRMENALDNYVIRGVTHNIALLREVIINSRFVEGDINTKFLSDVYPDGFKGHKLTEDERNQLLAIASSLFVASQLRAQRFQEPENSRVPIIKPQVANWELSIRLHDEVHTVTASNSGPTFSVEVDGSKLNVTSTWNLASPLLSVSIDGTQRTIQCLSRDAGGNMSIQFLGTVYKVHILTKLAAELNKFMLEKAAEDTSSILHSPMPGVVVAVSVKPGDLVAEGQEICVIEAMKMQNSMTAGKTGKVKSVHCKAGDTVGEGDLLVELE
# Protocol: (§4) Similar experiments were carried out to compare the IC50 values for PYC, PCCA, and PCCB. In these trials, a porcine liver proteome was run over an ATP-Sepharose™ column to bind all purine-binding proteins. The ATP-Sepharose™ column was washed several times, and then eluted with the compound of Formula III at concentrations of 1 μM, 5 μM, 10 μM, 50 μM, 100 μM, and 500 μM to identify proteins that bound to this compound.
# as §3
# (§5) The values obtained were then compared to those for DHFR.
# [3] = target: T3, propionyl-CoA carboxylase subunit alpha (PCCA) (Sus scrofa, UniProt P0DTA4); test: Elution of PCCA from ATP-Sepharose column loaded with porcine liver proteome, IC50 estimate; assay type: binding; details: estimated from percent of protein eluted from ATP-Sepharose column, read-out: Approximate IC50 for PCCA
# T3 construct: a porcine liver proteome was run over an ATP-Sepharose™ column; from tissue; host or cells: porcine liver
# T3 sequence (P0DTA4 53-730): T2 sequence (P0DTA4 53-730 partner)
# T3 sequence (P79384 29-539 partner): T2 sequence (P79384 29-539)
# Protocol: as §4, §3, §5
# DHFR = target: T4, DHFR (Homo sapiens, UniProt P00374); test: DHFR enzymatic assay; assay type: biochemical; details: determined by enzymatic assay
# T4 sequence (P00374 1-187): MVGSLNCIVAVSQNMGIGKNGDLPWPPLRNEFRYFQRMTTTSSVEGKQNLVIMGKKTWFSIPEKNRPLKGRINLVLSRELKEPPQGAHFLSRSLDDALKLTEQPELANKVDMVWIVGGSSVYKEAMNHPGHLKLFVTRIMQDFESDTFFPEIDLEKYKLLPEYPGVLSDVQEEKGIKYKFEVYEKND
# Her2 = Her2 (Homo sapiens, UniProt P04626); test: Elution of Her2 from ATP-Sepharose column by compound (Proteome Mining), IC50 estimate; assay type: binding; details: estimated from percent of protein eluted from ATP-Sepharose column, gel densitometry; read-out: Approximate IC50 for Her2
# Protocol: as §1, with “See, WO 00/63694 and U.S. Provisional Application No. 60/453,697 filed Jan. 22, 2003, each of which is incorporated by reference in its entirety.” left out
# EGFR, sequence (P00533 25-1210, species assumed): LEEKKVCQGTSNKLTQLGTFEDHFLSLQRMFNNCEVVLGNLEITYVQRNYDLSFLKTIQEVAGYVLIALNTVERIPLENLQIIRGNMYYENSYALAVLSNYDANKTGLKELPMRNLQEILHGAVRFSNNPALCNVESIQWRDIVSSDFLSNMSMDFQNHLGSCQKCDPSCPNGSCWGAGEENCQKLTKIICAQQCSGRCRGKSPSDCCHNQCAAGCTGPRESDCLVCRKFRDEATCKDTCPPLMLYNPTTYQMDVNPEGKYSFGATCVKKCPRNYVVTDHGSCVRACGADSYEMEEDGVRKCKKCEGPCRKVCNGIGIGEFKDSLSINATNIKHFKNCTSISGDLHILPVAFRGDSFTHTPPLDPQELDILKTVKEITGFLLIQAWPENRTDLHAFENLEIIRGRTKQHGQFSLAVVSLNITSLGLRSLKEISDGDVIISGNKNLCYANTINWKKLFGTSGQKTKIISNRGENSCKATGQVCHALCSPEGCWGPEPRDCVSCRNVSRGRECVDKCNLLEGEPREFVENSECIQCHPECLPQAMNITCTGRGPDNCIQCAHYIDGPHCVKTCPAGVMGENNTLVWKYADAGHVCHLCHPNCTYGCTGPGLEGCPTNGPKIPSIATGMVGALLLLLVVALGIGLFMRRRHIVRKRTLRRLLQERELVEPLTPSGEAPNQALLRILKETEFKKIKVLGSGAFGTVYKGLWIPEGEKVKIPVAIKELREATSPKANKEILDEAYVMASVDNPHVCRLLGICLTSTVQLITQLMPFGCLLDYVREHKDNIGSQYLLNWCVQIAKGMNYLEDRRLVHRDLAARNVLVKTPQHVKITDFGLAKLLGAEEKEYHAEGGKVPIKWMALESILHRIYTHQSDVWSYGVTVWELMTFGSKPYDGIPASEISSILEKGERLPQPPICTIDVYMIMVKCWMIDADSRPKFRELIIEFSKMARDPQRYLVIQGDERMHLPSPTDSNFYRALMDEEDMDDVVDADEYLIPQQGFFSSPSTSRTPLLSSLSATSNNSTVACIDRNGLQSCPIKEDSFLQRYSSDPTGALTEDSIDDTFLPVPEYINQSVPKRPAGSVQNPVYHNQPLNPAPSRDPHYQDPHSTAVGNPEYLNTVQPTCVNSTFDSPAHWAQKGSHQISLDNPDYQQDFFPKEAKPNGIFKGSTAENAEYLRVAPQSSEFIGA
# B-Raf, sequence (P15056 whole entry, species assumed): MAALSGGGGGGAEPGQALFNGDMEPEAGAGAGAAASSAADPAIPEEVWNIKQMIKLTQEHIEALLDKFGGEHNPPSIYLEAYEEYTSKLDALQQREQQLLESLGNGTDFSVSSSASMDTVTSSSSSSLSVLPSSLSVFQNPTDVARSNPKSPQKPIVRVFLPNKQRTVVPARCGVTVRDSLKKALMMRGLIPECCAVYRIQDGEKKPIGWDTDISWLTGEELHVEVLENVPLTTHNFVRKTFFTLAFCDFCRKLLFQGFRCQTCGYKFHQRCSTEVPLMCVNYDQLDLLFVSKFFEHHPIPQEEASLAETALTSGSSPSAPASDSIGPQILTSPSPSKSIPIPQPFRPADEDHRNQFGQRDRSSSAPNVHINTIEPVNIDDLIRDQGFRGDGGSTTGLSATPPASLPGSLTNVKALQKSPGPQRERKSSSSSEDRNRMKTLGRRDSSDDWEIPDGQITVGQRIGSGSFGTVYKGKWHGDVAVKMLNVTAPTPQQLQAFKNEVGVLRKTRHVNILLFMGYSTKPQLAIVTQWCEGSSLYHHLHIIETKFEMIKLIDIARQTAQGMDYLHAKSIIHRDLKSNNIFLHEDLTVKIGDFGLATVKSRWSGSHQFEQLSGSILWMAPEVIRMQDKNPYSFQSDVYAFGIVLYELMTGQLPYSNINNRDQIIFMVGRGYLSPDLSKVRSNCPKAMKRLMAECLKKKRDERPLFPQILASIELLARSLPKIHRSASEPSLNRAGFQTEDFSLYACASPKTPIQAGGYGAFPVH
# Her2, sequence (P04626 23-1255, species assumed): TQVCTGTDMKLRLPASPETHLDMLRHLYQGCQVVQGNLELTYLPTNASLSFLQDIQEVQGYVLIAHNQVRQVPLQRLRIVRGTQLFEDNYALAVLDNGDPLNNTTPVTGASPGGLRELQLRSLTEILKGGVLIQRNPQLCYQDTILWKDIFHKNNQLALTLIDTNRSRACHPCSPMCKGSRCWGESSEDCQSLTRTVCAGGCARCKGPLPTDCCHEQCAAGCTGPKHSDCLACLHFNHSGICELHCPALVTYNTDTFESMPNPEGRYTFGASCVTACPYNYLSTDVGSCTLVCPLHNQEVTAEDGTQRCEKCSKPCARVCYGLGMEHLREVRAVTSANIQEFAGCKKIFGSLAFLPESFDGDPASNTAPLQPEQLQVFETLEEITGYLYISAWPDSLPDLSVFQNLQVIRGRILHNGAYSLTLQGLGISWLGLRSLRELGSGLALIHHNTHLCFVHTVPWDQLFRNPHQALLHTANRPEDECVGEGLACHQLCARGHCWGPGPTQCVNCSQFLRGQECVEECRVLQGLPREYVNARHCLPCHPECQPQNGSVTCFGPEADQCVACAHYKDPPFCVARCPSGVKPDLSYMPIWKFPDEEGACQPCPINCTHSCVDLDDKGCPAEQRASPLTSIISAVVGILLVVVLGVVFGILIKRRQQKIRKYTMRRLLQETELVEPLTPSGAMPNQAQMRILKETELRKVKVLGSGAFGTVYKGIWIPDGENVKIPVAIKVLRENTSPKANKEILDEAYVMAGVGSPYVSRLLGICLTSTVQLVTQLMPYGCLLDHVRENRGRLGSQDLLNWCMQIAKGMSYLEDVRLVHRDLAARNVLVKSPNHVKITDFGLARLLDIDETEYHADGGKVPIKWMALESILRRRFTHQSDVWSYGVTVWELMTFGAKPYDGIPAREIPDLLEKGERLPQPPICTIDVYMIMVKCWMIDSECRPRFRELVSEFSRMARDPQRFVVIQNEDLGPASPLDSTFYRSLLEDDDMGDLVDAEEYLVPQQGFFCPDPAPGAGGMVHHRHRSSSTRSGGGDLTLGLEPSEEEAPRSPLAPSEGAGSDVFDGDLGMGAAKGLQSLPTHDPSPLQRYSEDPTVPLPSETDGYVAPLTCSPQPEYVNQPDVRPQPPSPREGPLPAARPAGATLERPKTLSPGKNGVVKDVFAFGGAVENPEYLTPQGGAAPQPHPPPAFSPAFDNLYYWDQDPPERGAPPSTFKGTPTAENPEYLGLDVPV
SMILES,IC50 (EGFR) [µM],IC50 (B-Raf) [µM],IC50 [1] [µM],IC50 [2] [µM],IC50 [3] [µM],IC50 (DHFR) [µM],IC50 (Her2) [µM]
"CN(Cc1cnc2nc(N)nc(N)c2n1)c1ccc(C(=O)N[C@@H](CCC(=O)O)C(=O)O)cc1 [MTX, N-[4-[[(2,4-diamino-6-pteridinyl)methyl]methylamino]benzoyl]-L-glutamic acid, reference compound]",> 15,≥ 10,0.35,,,,
Cc1cc(C(=O)NC(CCC(=O)O)C(=O)O)ccc1N(Cc1cnc2nc(N)nc(N)c2n1)CC(C)(C)C (stereo not drawn) [Formula IV],,,5,10,6,0.017,
Cc1cc(C(=O)NC(CCC(=O)O)C(=O)O)ccc1N(Cc1cnc2nc(N)nc(N)c2n1)CC1CC1 (stereo not drawn) [Formula V],,,4,3.5,2,,5
CC(C)(C)CN(Cc1cnc2nc(N)nc(N)c2n1)c1ccc(C(=O)NC(CCC(=O)O)C(=O)O)cc1 (stereo not drawn) [Formula X],,,4.35,4,2.5,0.016,
CC(C)=CCN(Cc1cnc2nc(N)nc(N)c2n1)c1ccc(C(=O)NC(CCC(=O)O)C(=O)O)cc1C (stereo not drawn) [Formula VI],,,0.5,1,1,,
